Laboratory results published in US7632918B2, “Semi-synthetic glycopeptides with antibiotic activity” (Novartis Vaccines and Diagnostics, Inc., priority 2005, dated 2009).
In brackets after ≈: the same amount, converted by molar mass.

Legend:
Assay in all cases: MIC, broth microdilution in Meuller-Hinton broth (NCCLS)
3798 S. aureus (GISA) = format: cell-based, Staphylococus aureus; conditions: glycopeptides-intermediate clinical isolate
Protocol: (§1) Antibacterial activity in vitro was investigated by broth microdilution method in Meuller-Hinton broth as recommended by NCCLS. All strains tested were clinical isolates either sensitive or resistant to natural glycopeptides. Results are reported in the tables as MIC (minimal inhibitory concentration) in μg/ml.
(§2) The glycopeptides were tested against a variety of strains, indicated below, including Staphylococus epidermidis, Staphylococus haemolyticus, glycopeptides-intermediate Staphylococus aureus (GISA), glocopeptide-sensitive Enterococcus faecalis (GSE), and glocopeptide-resistant Enterococcus faecalis (GRE). Results are shown in the table as minimum inhibitory concentration (MIC) in units of μg/ml: […]

3797 S. aureus (GISA) = format: cell-based, Staphylococus aureus; conditions: glycopeptides-intermediate clinical isolate
Protocol: as §1, §2

533 S. epidermidis = format: cell-based, Staphylococus epidermidis; conditions: clinical isolate
Protocol: as §1, §2

602 S. haemolyticus = format: cell-based, Staphylococus haemolyticus; conditions: clinical isolate
Protocol: as §1, §2

559 E. faecalis (GSE) = format: cell-based, Enterococcus faecalis; conditions: glycopeptide-sensitive clinical isolate
Protocol: as §1, §2

560 E. faecalis (GRE) = format: cell-based, Enterococcus faecalis; conditions: glycopeptide-resistant clinical isolate
Protocol: as §1, §2

569 E. faecium (GRE) = format: cell-based; conditions: glycopeptide-resistant clinical isolate
Protocol: as §1, §2

568 E. faecium (GSE) = format: cell-based; conditions: glycopeptide-sensitive clinical isolate
Protocol: as §1, §2

Compound	MIC 3798 S. aureus (GISA) (3798 S. aureus (GISA))	MIC 3797 S. aureus (GISA) (3797 S. aureus (GISA))	MIC 533 S. epidermidis (533 S. epidermidis)	MIC 602 S. haemolyticus (602 S. haemolyticus)	MIC 559 E. faecalis (GSE) (559 E. faecalis (GSE))	MIC 560 E. faecalis (GRE) (560 E. faecalis (GRE))	MIC 569 E. faecium (GRE) (569 E. faecium (GRE))	MIC 568 E. faecium (GSE) (568 E. faecium (GSE))
CNC(CC(C)C)C(=O)NC1C(=O)NC(CC(N)=O)C(=O)NC2C(=O)NC3C(=O)NC(C(=O)NC(C(=O)O)c4cc(O)cc(O)c4-c4cc3ccc4O)C(OC3CC(C)(N)C(O)C(C)O3)c3ccc(cc3)Oc3cc2cc(c3OC2OC(CO)C(O)C(O)C2OC2CC(C)(NC(=O)[C@@H](N)Cc3ccc(OCc4ccccc4)cc3)C(O)C(C)O2)Oc2ccc(cc2Cl)C1O (stereo partly shown) [Compound 228]	16 µg/mL (≈ 8.83 µM)	16 µg/mL (≈ 8.83 µM)	4 µg/mL (≈ 2.21 µM)	4 µg/mL (≈ 2.21 µM)	2 µg/mL (≈ 1.1 µM)	>64 µg/mL	>64 µg/mL	2 µg/mL (≈ 1.1 µM)
CNC(CC(C)C)C(=O)NC1C(=O)NC(CC(N)=O)C(=O)NC2C(=O)NC3C(=O)NC(C(=O)NC(C(=O)O)c4cc(O)cc(O)c4-c4cc3ccc4O)C(O)c3ccc(c(Cl)c3)Oc3cc2cc(c3OC2OC(CO)C(O)C(O)C2OC2CC(C)(NC(=O)CNCc3ccc(F)cc3)C(O)C(C)O2)Oc2ccc(cc2Cl)C1O (stereo not shown) [Compound 291]	4 µg/mL (≈ 2.48 µM)	4 µg/mL (≈ 2.48 µM)	4 µg/mL (≈ 2.48 µM)	4 µg/mL (≈ 2.48 µM)	1 µg/mL (≈ 0.619 µM)	8 µg/mL (≈ 4.96 µM)	8 µg/mL (≈ 4.96 µM)	1 µg/mL (≈ 0.619 µM)
CNC(CC(C)C)C(=O)NC1C(=O)NC(CC(N)=O)C(=O)NC2C(=O)NC3C(=O)NC(C(=O)NC(C(=O)O)c4cc(O)cc(O)c4-c4cc3ccc4O)C(OC3CC(C)(N)C(O)C(C)O3)c3ccc(cc3)Oc3cc2cc(c3OC2OC(CO)C(O)C(O)C2OC2CC(C)(NC(=O)CNCc3ccc(F)cc3)C(O)C(C)O2)Oc2ccc(cc2Cl)C1O (stereo not shown) [Compound 293]	8 µg/mL (≈ 4.64 µM)	8 µg/mL (≈ 4.64 µM)	4 µg/mL (≈ 2.32 µM)	4 µg/mL (≈ 2.32 µM)	4 µg/mL (≈ 2.32 µM)	16 µg/mL (≈ 9.29 µM)	16 µg/mL (≈ 9.29 µM)	4 µg/mL (≈ 2.32 µM)
CCCCOc1ccc(CNCC(=O)NC2(C)CC(OC3C(Oc4c5cc6cc4Oc4ccc(cc4Cl)C(O)C4NC(=O)C(NC(=O)C6NC(=O)C(CC(N)=O)NC(=O)C(NC(=O)C(CC(C)C)NC)C(O)c6ccc(c(Cl)c6)O5)c5ccc(O)c(c5)-c5c(O)cc(O)cc5C(C(=O)O)NC4=O)OC(CO)C(O)C3O)OC(C)C2O)cc1 (stereo not shown) [Compound 218]	1 µg/mL (≈ 0.599 µM)	0.5 µg/mL (≈ 0.3 µM)	0.13 µg/mL (≈ 0.0779 µM)	0.13 µg/mL (≈ 0.0779 µM)	1 µg/mL (≈ 0.599 µM)	>64 µg/mL	>64 µg/mL	0.5 µg/mL (≈ 0.3 µM)
CCCCCCCCOc1ccc(CNCC(=O)NC2(C)CC(OC3C(Oc4c5cc6cc4Oc4ccc(cc4Cl)C(O)C(NC(=O)C(CC(C)C)NC)C(=O)NC(CC(N)=O)C(=O)NC6C(=O)NC4C(=O)NC(C(=O)NC(C(=O)O)c6cc(O)cc(O)c6-c6cc4ccc6O)C(OC4CC(C)(N)C(O)C(C)O4)c4ccc(cc4)O5)OC(CO)C(O)C3O)OC(C)C2O)cc1 (stereo not shown) [Compound 214]	4 µg/mL (≈ 2.18 µM)	4 µg/mL (≈ 2.18 µM)	1 µg/mL (≈ 0.545 µM)	1 µg/mL (≈ 0.545 µM)	1 µg/mL (≈ 0.545 µM)	8 µg/mL (≈ 4.36 µM)	8 µg/mL (≈ 4.36 µM)	0.5 µg/mL (≈ 0.273 µM)
CNC(CC(C)C)C(=O)NC1C(=O)NC(CC(N)=O)C(=O)NC2C(=O)NC3C(=O)NC(C(=O)NC(C(=O)O)c4cc(O)cc(O)c4-c4cc3ccc4O)C(OC3CC(C)(N)C(O)C(C)O3)c3ccc(cc3)Oc3cc2cc(c3OC2OC(CO)C(O)C(O)C2OC2CC(C)(NC(=O)C(N)CCCCN)C(O)C(C)O2)Oc2ccc(cc2Cl)C1O (stereo not shown) [Compound 203]	8 µg/mL (≈ 4.74 µM)	4 µg/mL (≈ 2.37 µM)	0.13 µg/mL (≈ 0.0771 µM)	0.13 µg/mL (≈ 0.0771 µM)	0.25 µg/mL (≈ 0.148 µM)	>64 µg/mL	16 µg/mL (≈ 9.49 µM)	0.25 µg/mL (≈ 0.148 µM)
N′-stilbenylHNCH2CO eremomycin [Compound 192]	8 µg/mL	8 µg/mL	0.5 µg/mL	0.5 µg/mL	1 µg/mL	8 µg/mL	4 µg/mL	0.5 µg/mL
CCCCN(CCCC)c1ccc(CNCC(=O)NC2(C)CC(OC3C(Oc4c5cc6cc4Oc4ccc(cc4Cl)C(O)C(NC(=O)C(CC(C)C)NC)C(=O)NC(CC(N)=O)C(=O)NC6C(=O)NC4C(=O)NC(C(=O)NC(C(=O)O)c6cc(O)cc(O)c6-c6cc4ccc6O)C(OC4CC(C)(N)C(O)C(C)O4)c4ccc(cc4)O5)OC(CO)C(O)C3O)OC(C)C2O)cc1 (stereo not shown) [Compound 187]	8 µg/mL (≈ 4.37 µM)	8 µg/mL (≈ 4.37 µM)	1 µg/mL (≈ 0.546 µM)	1 µg/mL (≈ 0.546 µM)	2 µg/mL (≈ 1.09 µM)	32 µg/mL (≈ 17.5 µM)	32 µg/mL (≈ 17.5 µM)	1 µg/mL (≈ 0.546 µM)
CCCCOc1ccc(CNCC(=O)NC2(C)CC(OC3C(Oc4c5cc6cc4Oc4ccc(cc4Cl)C(O)C(NC(=O)C(CC(C)C)NC)C(=O)NC(CC(N)=O)C(=O)NC6C(=O)NC4C(=O)NC(C(=O)NC(C(=O)O)c6cc(O)cc(O)c6-c6cc4ccc6O)C(OC4CC(C)(N)C(O)C(C)O4)c4ccc(cc4)O5)OC(CO)C(O)C3O)OC(C)C2O)cc1 (stereo not shown) [Compound 193]	4 µg/mL (≈ 2.25 µM)	4 µg/mL (≈ 2.25 µM)	0.5 µg/mL (≈ 0.281 µM)	1 µg/mL (≈ 0.563 µM)	2 µg/mL (≈ 1.13 µM)	64 µg/mL (≈ 36 µM)	64 µg/mL (≈ 36 µM)	1 µg/mL (≈ 0.563 µM)
CNC(CC(C)C)C(=O)NC1C(=O)NC(CC(N)=O)C(=O)NC2C(=O)NC3C(=O)NC(C(=O)NC(C(=O)O)c4cc(O)cc(O)c4-c4cc3ccc4O)C(O)c3ccc(c(Cl)c3)Oc3cc2cc(c3OC2OC(CO)C(O)C(O)C2OC2CC(C)(NC(=O)CNc3ccc4ccccc4n3)C(O)C(C)O2)Oc2ccc(cc2Cl)C1O (stereo not shown) [Compound 298]	8 µg/mL (≈ 4.9 µM)	8 µg/mL (≈ 4.9 µM)	8 µg/mL (≈ 4.9 µM)	8 µg/mL (≈ 4.9 µM)	2 µg/mL (≈ 1.22 µM)	64 µg/mL (≈ 39.2 µM)	>64 µg/mL	4 µg/mL (≈ 2.45 µM)
CNC(CC(C)C)C(=O)NC1C(=O)NC(CC(N)=O)C(=O)NC2C(=O)NC3C(=O)NC(C(=O)NC(C(=O)NCc4ccc(F)cc4)c4cc(O)cc(O)c4-c4cc3ccc4O)C(O)c3ccc(c(Cl)c3)Oc3cc2cc(c3OC2OC(CO)C(O)C(O)C2OC2CC(C)(N)C(O)C(C)O2)Oc2ccc(cc2Cl)C1O (stereo not shown) [Compound 288]	4 µg/mL (≈ 2.57 µM)	4 µg/mL (≈ 2.57 µM)	2 µg/mL (≈ 1.29 µM)	1 µg/mL (≈ 0.643 µM)	0.13 µg/mL (≈ 0.0835 µM)	>64 µg/mL	>64 µg/mL	0.13 µg/mL (≈ 0.0835 µM)
CCCCc1ccc(CN[C@@H](CCCN)C(=O)NC2(C)CC(OC3C(Oc4c5cc6cc4Oc4ccc(cc4Cl)C(O)C(NC(=O)C(CC(C)C)NC)C(=O)NC(CC(N)=O)C(=O)NC6C(=O)NC4C(=O)NC(C(=O)NC(C(=O)O)c6cc(O)cc(O)c6-c6cc4ccc6O)C(OC4CC(C)(N)C(O)C(C)O4)c4ccc(cc4)O5)OC(CO)C(O)C3O)OC(C)C2O)cc1 (stereo partly shown) [Compound 242]	4 µg/mL (≈ 2.2 µM)	4 µg/mL (≈ 2.2 µM)	0.25 µg/mL (≈ 0.137 µM)	1 µg/mL (≈ 0.55 µM)	1 µg/mL (≈ 0.55 µM)	8 µg/mL (≈ 4.4 µM)	8 µg/mL (≈ 4.4 µM)	0.5 µg/mL (≈ 0.275 µM)
CNC(CC(C)C)C(=O)NC1C(=O)NC(CC(N)=O)C(=O)NC2C(=O)NC3C(=O)NC(C(=O)NC(C(=O)O)c4cc(O)cc(O)c4-c4cc3ccc4O)C(O)c3ccc(c(Cl)c3)Oc3cc2cc(c3OC2OC(CO)C(O)C(O)C2OC2CC(C)(NC(=O)CNCc3ccc(-c4ccc(Cl)cc4)cc3)C(O)C(C)O2)Oc2ccc(cc2Cl)C1O (stereo not shown) [Compound 210]	1 µg/mL (≈ 0.586 µM)	1 µg/mL (≈ 0.586 µM)	0.13 µg/mL (≈ 0.0762 µM)	0.25 µg/mL (≈ 0.146 µM)	0.5 µg/mL (≈ 0.293 µM)	16 µg/mL (≈ 9.37 µM)	16 µg/mL (≈ 9.37 µM)	0.25 µg/mL (≈ 0.146 µM)
CNC(CC(C)C)C(=O)NC1C(=O)NC(CC(N)=O)C(=O)NC2C(=O)NC3C(=O)NC(C(=O)NC(C(=O)O)c4cc(O)cc(O)c4-c4cc3ccc4O)C(OC3CC(C)(N)C(O)C(C)O3)c3ccc(cc3)Oc3cc2cc(c3OC2OC(CO)C(O)C(O)C2OC2CC(C)(NC(=O)CNCc3ccc(-c4ccc(Cl)cc4)cc3)C(O)C(C)O2)Oc2ccc(cc2Cl)C1O (stereo not shown) [Compound 44]	4 µg/mL (≈ 2.2 µM)	4 µg/mL (≈ 2.2 µM)	0.5 µg/mL (≈ 0.275 µM)	2 µg/mL (≈ 1.1 µM)	1 µg/mL (≈ 0.551 µM)	8 µg/mL (≈ 4.41 µM)	8 µg/mL (≈ 4.41 µM)	1 µg/mL (≈ 0.551 µM)
